# Assays:
# [1] = system: low-density lipoproteins (LDLs); experiment: Antiradical properties: inhibition of lipid peroxidation in AAPH-induced oxidation of LDLs; format: biochemical; settings: for anti-radical properties compared with Dap-Pip and vitamin E: concentrations from 1 to 10 μM; for antioxidant effect: concentrations ranging from 1 to 100; for antioxidant properties: low concentrations of about 1 μM
# Method: The antiradical properties of the various compounds are determined by inhibition of the lipid peroxidation in the in vitro model of the oxidation of the low-density lipoproteins (LDLs) (Free Radic. Biol. Med., 1992, 13, 341-390). The lipid peroxidation is initiated by the attack by free radicals of a double bond of a polyunsaturated fatty acid present in the LDLs. […] Once initiated, the oxidation of the LDLs is a chain reaction of lipid peroxidation generated by the free radicals. The oxidation in vitro of the LDLs is induced at 37° C. by the adding of the water-soluble compound 2,2′-Azobis(2-methylpropionamidine)dihydrochloride (AAPH), which generates free radicals during the spontaneous thermal breakdown thereof
# Briefly, the oxidation, carried out in a 96-well plate, is induced at 37° C. by adding 20 μL of a solution of AAPH at 2 mM in D-PBS at 160 μL of LDL (100 μg/mL) in the presence or absence of 20 μL of the various solutions of the compounds to be tested dissolved in D-PBS (0.1 to 100 μM in final concentrations). The LDLs alone without adding AAPH are used as a negative control. Each oxidation is carried out in double. During the oxidation, the formation of the conjugated dienes is followed by the measurement of the optical density at 234 nm every 10 minutes for 8 h at 37° C. using a temperature-controlled TECAN spectrophotometer. The vitamin E (α-tocopherol) which is a powerful antioxidant recognised in this in vitro model is used as a reference molecule (J. Nutr. Biochem., 2012, 23, 845-51).
# [2] = ORACFL test (Oxygen Radical Absorbance Capacity) using fluorescein/AAPH; format: physicochemical; settings: compounds at 10 μM; for ORACFL: mean ± SEM of three independent experiments in triplicate
# Method: The antioxidant properties of the compounds according to the invention were evaluated using a ORACFL test using fluorescein (J. Agric. Food Chem., 2004 52, 48-54; J. Agric. Food Chem., 2005, 53, 4290-4302). As such, peroxide radicals, generated in the presence of AAPH (2,2′-azobis(2-methylpropionamidine)dihydrochloride) at 37° C., react with this fluorescent sensor in order to give a non-fluorescent product. The protective effect of the test compounds can then be determined by following the decay curve of the fluorescence of the fluorescein over time and be measuring the area under the curve (AUC) of the sample in relation to that of a control corresponding to an absence of antioxidant.
# The trolox (6-hydroxy-2,5,7,8-tetramethylchroman-2-carboxylic acid), a water-soluble analogue of vitamin E, is used as a standard for calculating the antioxidant capacity (ORACFL) of the compounds tested at 10 μM, expressed in […] of tested compound. This value is as such obtained using the straight-line calibration equation giving the area under the curve according to the various concentrations of trolox (Bioorg. Med. Chem., 2015, 23, 1135-1148) (FIG. 11).
# A solution of fluorescein (FL) (12 nM; 150 μL) is introduced into a black 96-well plate (Dutscher, Brumath, France). The compounds to be tested (1-20 μM; 25 μL) or trolox (1-50 μM; 25 μL) dissolved in D-PBS are added into each well. After equilibration of the plate during an incubation at 37° C. for a minimum of 30 min, the radical reactions are initiated using a solution of AAPH prepared extemporaneously (30 mM; 25 μL). The fluorescence (λEx: 485 nm; λEm: 520 nm) is measured every 90 seconds for 60 cycles using a temperature-controlled Tecan Infinite® 200 PRO microplate reader (measurements taken in triplicates during three independent experiments).
# [3] = Formation of adducts with MGO, kinetic study by HPLC; format: physicochemical; settings: compound 10 mM, MGO 20 mM, 37° C.; for disappearance of the free scavenger to the benefit of adducts with the MGO: after 15 min of incubation
# Method: The compounds to be tested are incubated at 37° C. in the presence of MGO or of MDA. A kinetic study aiming to report on the formation of adducts with the MGO or MDA is then carried out via HPLC analysis.
# The compounds to be tested (30 μmol) are dissolved in PBS (1.5 mL). An aqueous solution (qsp 1.25 mL) of MGO at 40% in water (250 μmol) is then prepared and in parallel, MDA bis-(diOEt)-acetal (250 μmol) is set to react with a solution of HCl 1N (2 eq) in water (qsp 1.25 mL) for 1 h at room temperature. An aqueous solution of NaOH 0.05N is also required to neutralise the reaction medium (5 mL).
# The solution of the compound to be tested (625 μL—final concentration in the medium=10 mM) is then set to react with the solution of MGO or of MDA prepared extemporaneously (125 μL—final concentration in the medium=20 mM) in the presence of NaOH 0.05 N (0.5 mL).
# The various mixtures are then incubated in the oven at 37° C. for 24 h.
# A sampling of each mixture (100 μL) is taken at regular intervals of time (0.25; 0.5; 1; 5 and 24 h) and stored at −20° C. in order to stop the reaction. After dilution in a MeCN/H2O 98:2 mixture at room temperature, the HPLC analysis is carried out on a Shimadzu LCMS-2020 apparatus (UV chromatogram at 190 nm and mass spectrum in positive electrospray ionisation mode (ESI+)) after separation on the Waters Acquity column using a gradient of solvents H2O+HCOOH 0.1%/MeCN+HCOOH 0.1% (98/2 for 2 min, then 55/45 for 2 min and 45/55 for 3 min) with a flow rate of 0.3 mL/min at 40° C. and an injection of volume of 1 (“detection mode: scan, interface voltage: tuning file, DL voltage: 100 V, Q-array DC: 40 V, Q-array RF: 40 V”). A blank is first of all carried out using a solution containing the reaction medium without scavenger. Then, a free scavenger solution at 10 mM is used as a negative control and the carnosine as a reference of the literature. The proportion of adducts formed with the MGO or MDA (generally, tR=4.1 to 6.8 min) is then measured in relation to the quantity of remaining free scavenger (generally, tR=0.8 to 4.6 min) after measurement of the area under the curve of the corresponding peaks on the UV spectrum (measurements taken for a representative sample).
# [4] = lower concentrations, 0.1 to 10 μM
SMILES,anti-radical properties compared with Dap-Pip and vitamin E [1],antioxidant / pro-oxidant behaviour ([1]; concentrations ranging from 50 to 100),"antioxidant / pro-oxidant behaviour [1, 4]","antioxidant capacity (ORACFL), in words [2]",ORACFL [2] [μmol TE/μmol],"adducts with the MGO with regards to the free scavenger ([3]; after 5 h of reaction, no HPLC separation, trend)",antioxidant / pro-oxidant behaviour ([1]; concentrations ranging from 25 to 100),disappearance of the free scavenger to the benefit of adducts with the MGO [3],antioxidant effect [1],antioxidant properties [1]
"NCC(N)CCCCNC(=O)c1cc(O)c(O)c(O)c1 (stereo not shown) [Compound 30b, N-(5,6-diaminohexyl)-3,4,5-trihydroxybenzamide]","higher than those of the 2nd generation Dap-Pip derivative, and even those of vitamin E",highly pro-oxidant,highly antioxidant,most active,2.59 ± 0.35,–,–,–,–,–
"COc1cc(/C=C/C(=O)N2CCN(C(=O)CCC(N)CN)CC2)ccc1O (stereo not shown) [Compound 29a, (E)-4,5-diamino-1-(4-(3-(4-hydroxy-3-methoxyphenyl)acryloyl)piperazin-1-yl)pentan-1-one]",–,–,pro-oxidants,–,2.05 ± 0.23,majority presence of AdB,antioxidants,–,–,–
"NCC(N)CCC(=O)NCCCn1cccc(O)c1=O (stereo not shown) [Compound 37c, 4,5-diamino-N-(3-(3-hydroxy-2-oxopyridin-1(2H)-yl)propyl)pentanamide]","higher than those of the 2nd generation Dap-Pip derivative, and even those of vitamin E",–,–,most active,1.03 ± 0.03,–,–,almost total disappearance of the free scavenger,increasing antioxidant effect,best antioxidant properties
"NCC(N)CCCCNC(=O)CCn1cccc(O)c1=O (stereo not shown) [Compound 37b, N-(5,6-diaminohexyl)-3-(3-hydroxy-2-oxopyridin-1(2H)-yl)propanamide]",–,–,–,–,0.99 ± 0.09,–,–,almost total disappearance of the free scavenger,–,–
"NCC(N)CCCNC(=O)CCn1cccc(O)c1=O (stereo not shown) [Compound 37a, N-(4,5-diaminopentyl)-3-(3-hydroxy-2-oxopyridin-1(2H)-yl)propanamide]","higher than those of the 2nd generation Dap-Pip derivative, and even those of vitamin E",–,–,–,0.58 ± 0.02,–,–,almost total disappearance of the free scavenger,increasing antioxidant effect,best antioxidant properties

# From patent publication US10464920B2, “Vicinal primary diamines associated with metal and/or free radical chelation motifs, and active against carbonyl and oxidative stress, and use thereof” (UNIVERSITE AMIENS PICARDIE JULES VERNE, priority 2015, dated 2019)
